{"source": "patent US20190038750A1", "about": "“TRIPLE ANTIBIOTIC CATIONIC OINTMENT” (priority 2017, published 2019)", "origin": "cited, not measured here", "key": {"[1]": {"settings": "in vivo"}, "[2]": {"system": "vancomycin-resistant enterococci"}, "[3]": {"system": "Pseudomonas aeruginosa"}, "[4]": {"system": "Escherichia coli"}, "[5]": {"system": "Klebsiella pneumoniae (carbapenem-resistant enterobacteriaceae)"}, "[6]": {"system": "Aspergillus brasiliensis (mold)"}, "[7]": {"system": "Staphylococcus aureus (also the methicillin-resistant type, MRSA)"}, "[8]": {"system": "Candida albicans (yeast)"}, "[9]": {"system": "bacteria", "settings": "very low concentrations"}, "[10]": {"system": "fungus"}}}
{"substance": "benzalkonium chloride", "values": [{"measurement": "burning sensation", "setting": "[1]", "value": "does not cause a burning sensation"}]}
{"substance": "polyhexamethylenebiguanide [PHMB]", "values": [{"measurement": "effective against vancomycin-resistant enterococci", "setting": "[2]", "value": "effective"}, {"measurement": "effective against Pseudomonas aeruginosa", "setting": "[3]", "value": "effective"}, {"measurement": "effective against Escherichia coli", "setting": "[4]", "value": "effective"}, {"measurement": "effective against Klebsiella pneumoniae (carbapenem-resistant)", "setting": "[5]", "value": "effective"}, {"measurement": "effective against Aspergillus brasiliensis", "setting": "[6]", "value": "effective"}, {"measurement": "effective against Staphylococcus aureus (also MRSA)", "setting": "[7]", "value": "effective"}, {"measurement": "effective against Candida albicans", "setting": "[8]", "value": "effective"}]}
{"substance": "Polyaminopropylbiguanide [PAPB]", "values": [{"measurement": "bactericidal concentration", "setting": "[9]", "value": 10, "unit": "mg/1"}, {"measurement": "fungicidal", "setting": "[10]", "value": "fungicidal"}]}
